We go through 9 molecules from patent publication US12465579B2, “Compositions and methods for treating homocystinuria and other conditions” (THE REGENTS OF THE UNIVERSITY OF COLORADO, A BODY CORPORATE, priority 2019, dated 2025).

One data set relates to DMGDH. In words: Western blot analysis of hepatic DMGDH protein levels in HO HCU mice. In kind it is in vivo, mouse. The protocol: In other exemplary experiments, it is noted that methotrexate (MTX) treatment represses hepatic DMGDH protein levels even further in experimental HO HCU mice which supports the hypothesis that expression of this enzyme is sensitive to THF levels. In accordance with these methods, Western blot analysis of hepatic DMGDH protein levels in HO HCU mice in the presence and absence of methotrexate levels were assessed.
As illustrated herein, FIGS. 10A-10B represents a Western blot comparing the level of DMGDH and GAPDH (control) for untreated (HO) and treated (HO+MTX, methotrexate) mice (HO) using the HCU mouse model (10A); and further illustrated in a histogram plot (10B), level of intensity of DMDGH for untreated (HO) and treated (HO+MTX, methotrexate) mice (HO) using the HCU mouse model. This figure represents an N=9 per group and this figure is a representative of three independent experiments. P<0.05.
In another exemplary method, experiments were performed to measure levels of a critical enzyme in treated and untreated mouse models (HO).
As found in FIGS. 15A-15B, a Western blot comparing the level of DMGDH and GAPDH (control) for untreated (HO), treated (e.g. formate agent) and treated with standard treatment combinations (e.g. formate and trimethylglycine (e.g. betaine)) using the HCU mouse model (15A); and further illustrating in a histogram plot (15B), level of intensity of DMDGH for untreated (HO), treated (e.g. formate agent) and treated with standard treatment combinations (e.g. formate and trimethylglycine (e.g. betaine)) using the HCU mouse model in certain embodiments disclosed herein. Western blotting analysis of hepatic DMGDH protein levels in HO HCU mice in the presence and absence of either about 5.0% sodium formate alone or in combination with about 3.0% betaine given ad libitum in drinking water for about one week. N=9 per group. This figure is representative of three independent experiments.
(In general: Immunoblotting shows a protein as a band on a membrane.)

The subject of data set [1] is Cbs null mouse. In words: Hcy lowering, survival and liver injury in Cbs null mouse model. The class given is in vivo. Particulars: Cbs null mice with severe liver damage. From the text:
In one exemplary method, an acceptable mouse mode of HCU is used to study various effects of exemplary compositions disclosed herein on aberrant Hcy levels. To date, the majority of research on HCU has been performed using a CBS knockout mouse model. These Cbs (−/−) animals suffer from pronounced liver injury and typically die within 2-3 weeks of birth.
In an alternative experiment, agents were used to verify involvement of BHMT in the homocystinuria treatment process. In these exemplary methods, a Cbs null mouse was used where severe liver damage to the mouse model interferes with standard HCU treatments to reduce Hcy.

For data set [2], the system named is HO HCU mice. In words: Plasma Hcy, cysteine and metabolite levels in HO HCU mice treated via drinking water. The class given is in vivo, mouse. Particulars: for further lowering of Hcy due to betaine in the presence of the amino acid: about 3.0% w/v amino acid combined with about 3.0% w/v betaine in drinking water, one week; for plasma Hcy / plasma cysteine levels: HO mice, about 3.0% (w/v) in drinking water ad libitum for one week, normal methionine diet. The protocol: It is noted that WT mice (n=6) were untreated controls. HO HCU mice (N=8, 4 of each sex in each group) were either untreated or treated with about 3.0% (w/v) glycine w/v or about 3.0% (w/v) serine given in drinking water supplied ad libitum for one week.
In accordance with these methods, HO HCU mice (N=8, 4 of each sex in each group) were treated with either about 3.0% glycine w/v or about 3.0% w/v serine given in drinking water supplied ad libitum for one week in the presence and absence of about 3.0% w/v betaine. Plasma samples were taken from the mice at various times and Hcy levels were determined.
Plasma Hcy levels were determined from HO HCU mice (n=8 per group) in the presence and absence of either about 5.0% w/v sodium formate alone or in combination with about 3.0% betaine given in drinking water given ad libitum. […]

A further data set concerns A394V mice. In words: Plasma Hcy in NKH knock-in mouse model (GLDC mutation A394V) challenged with glycine.
Data set [3] concerns mouse model of MTR deficient homocystinuria. In words: Betaine supplementation in mouse model of MTR deficient homocystinuria. The class given is in vivo. The text has this: In the following exemplary experiments, it was observed that betaine supplementation was limited as observed in a mouse model of MTR deficient homocystinuria. As noted in FIG. 1, Homocystinuria can occur due to defects in the Hcy remethylation enzymes MTR or MTHFR. It was observed that supplementation of betaine in certain experiments with a mouse model of MTR deficient homocystinuria lead to reduction of tHcy of approximately 25% having little effect on the condition. This modest decrease in betaine mediated treatment of MTR deficient homocystinuria has also been observed in human patients with this form of homocystinuria.

Data set [4] concerns HO HCU mice. Description: Long-term betaine treatment of HO HCU mice without methionine-restriction. In kind it is in vivo, mouse.
Data set [5] relates to Cbs null mouse. Particulars: betaine treatment; cited from earlier work.
In a further data set the test system is DHFR. Description: Western blotting analysis of hepatic DHFR protein levels in HO HCU mice. The class given is in vivo, mouse. Particulars: betaine treated, not restored to control levels. The protocol: In other exemplary experiments, levels of DHFR were assessed using the HO mouse model in untreated and betaine treated mice. […] In addition, intensity levels of DHFR were measured and further illustrated in a histogram plot. As illustrated, level of intensity of DHFR for wild type (WT), treated (HO+betaine) and untreated mice (HO) using the HCU mouse model was examined. It is noted that the level of DHFR in betaine treated mice was not restored to control levels and only about a 5-10% improvement was observed (4B). (See FIGS. 4A-4B). As noted herein, Western blotting analysis of hepatic DHFR protein levels in WT and HO HCU mice. N=9 per group.

The next data set relates to hepatic 5-methyl-THF. Description: Hepatic metabolomic analysis of 5-MeTHF in HO mice. The class given is in vivo, mouse. Particulars: betaine 3% w/v in drinking water ad libitum. The text has this:
As illustrated in one example, see FIG. 2, HCU (HO) induces a significant accumulation of hepatic 5-methyl-THF which by sequestering one carbon units has the potential to decrease the available pool of THF available to the betaine pathway for lowering Hcy. FIG. 2 illustrates an example of hepatic metabolomic analysis of HO and WT controls compared to an HO mouse treated with betaine. Comparative hepatic metabolomic analysis of HO mice and WT controls illustrate about a 10-fold accumulation in the MTHFR product 5-MeTHF. Betaine treatment alone reduced 5-MeTHF by about 15-25%. Data illustrated in FIG. 2 is derived from the livers of 8 (4 male, 4 female) individual HO or WT or HO Betaine mice per group. Betaine was given at 3% w/v in drinking water given ad libitum. P<0.0001 vs WT.

The test system of a further data set is BHMT. In words: BHMT protein level in liver during long-term betaine treatment. The class given is in vivo. The text has this:
By this observation, it raised the possibility that the BHMT protein is impaired in its function. […] In this context, further induction of BHMT expression observed in a long-term betaine treatment group could constitute a not entirely successful compensatory mechanism designed to mitigate the effects of diminished BHMT activity.
In other embodiments disclosed herein, it was observed that BHMT is unusual in that it constitutes approximately 2% of total protein in the liver. During long-term betaine treatment this concentration rises to up to four to five fold (about 8-10%) of total hepatic protein which is an enormous amount of protein that would require zinc for its function. The increased requirement for zinc cannot be supplied because zinc cannot be stored in mammals and must be supplemented by diet or other source. Unfortunately, dietary sources of zinc are typically very high in protein and therefore precluded by the low methionine diet required of HCU patients. Therefore, long term betaine treatment in HCU could induce a significant zinc deficiency in a subject, impairing BHMT protein function and concomitantly reducing the betaine response.
BHMT is unusual in that it constitutes approximately 2% of total protein in the liver. […]

Setting [6] is: betaine treatment of the HO model.

Protocol for A394V mice: In another exemplary experiment, NKH as represented in the experimental mouse model, A394V mice was tested for levels of Hcy in the NKH mouse model when exposed to various agents.
In this experiment, a knock-in mouse model with the clinically observed human GLDC mutation A394V engineered into the mouse gene was used. This mutation retains a small amount of residual enzyme that is sufficient to create a viable model.
Data shown has an N=5 animals per group and is representative of 2 independent experiments.

Regarding `O=C[O-].[Na+]` [sodium formate], the “hepatic DMGDH expression levels” value in the data set on DMGDH (about 5.0% sodium formate alone in drinking water, about one week) is on record as “restore normal expression levels”. In the data set with DMGDH (about 5.0% sodium formate with about 3.0% betaine in drinking water, about one week), the “response level for restoring DMGDH, formate agent combined with betaine” value is listed as “surprisingly synergistic”. Moreover, the “lowering of Hcy in the Cbs null mouse model” value with Cbs null mouse [1] is listed as “unable to lower Hcy”. In addition, in the data set on HO HCU mice [2] (HO HCU mice, about 5.0% w/v sodium formate alone in drinking water, normal methionine/protein diet), the “plasma Hcy levels” value is recorded as “significantly lowered”. Further, the “Hcy levels, formate combined with the standard treatment (betaine)” value in the data set with HO HCU mice [2] (HO HCU mice, about 5.0% w/v sodium formate with about 3.0% betaine in drinking water, normal protein diet) is on record as “near normal levels”. For the same molecule, the “glycine induced increase in Hcy” value with A394V mice (A394V NKH mice, concomitant formate about 5.0% w/v in drinking water with about 5.0% w/v glycine) was “significantly reduced”.

With `N[C@@H](Cc1c[nH]cn1)C(=O)O` [histidine], in the data set with HO HCU mice [2] (HO HCU mice), the “further lowering of Hcy due to betaine in the presence of the amino acid” value (from here on “further lowering of Hcy due to betaine”) is “also observed”.

With `CNCC(=O)O` [sarcosine, sarcosine (methylglycine)], the “further lowering of Hcy due to betaine” value in the data set with HO HCU mice [2] (HO HCU mice) was “also observed”.

Take `CN(Cc1cnc2nc(N)nc(N)c2n1)c1ccc(C(=O)N[C@@H](CCC(=O)O)C(=O)O)cc1` [methotrexate]: the “hepatic DMGDH protein levels” value in the data set on DMGDH (methotrexate treatment) is reported as “represses”.

Regarding `O=S(=O)([O-])[O-].[Zn+2]` [Zinc sulfate], the “average decrease in plasma homocysteine” value with HO HCU mice [2] (8 HO HCU mice, 0.05% w/v Zinc sulfate in drinking water ad libitum for one week) was found to be 25%. Also, the “decrease in betaine efficacy during long term betaine treatment, zinc combined with betaine” value in the data set on HO HCU mice [2] (HO HCU mice, zinc supplementation with betaine, data not shown) was “prevented”.

Consider `C[N+](C)(C)CC(=O)O` [betaine, N,N,N-trimethylglycine], for which the “reduction of tHcy” value in data set [3] was “approximately 25%”. The “ability of betaine treatment to lower homocysteine” value with HO HCU mice [4] (long-term betaine treatment, no methionine-restriction) is on record as “diminished significantly over time”. Besides, in the data set on HO HCU mice [4] (prolonged betaine treatment), the coagulation phenotype result is recorded as “reversion to a hypercoagulative phenotype”; the “plasma levels of TNF-α and IL-Ip” value was “significant increase”. In the data set on Cbs null mouse [5], the “fertility of female Cbs (-/-) mice” value is “restored fertility”; the “lowering of Hcy in Cbs (-/-) mice” value is given as “without significantly lowering Hcy”; the “severe liver injury, steatosis, and fibrosis in surviving Cbs (-/-) mice” value is on record as “not significantly improved”; the “survival of Cbs (-/-) mice” value is listed as “improved survival”. In addition, the “reduction of Hcy levels by standard treatment alone” value in the data set on HO HCU mice [2] (HO mouse model, betaine alone, as previously observed) is 15-25%. In addition, in the data set with HO HCU mice [2] (setting [6]), the AdoHcy levels result was “fivefold decrease”, the “decrease in plasma AdoMet” value was determined as 40%, the “plasma DMG” value was “increase” and the “plasma MG” value is given as “increase”. For the same molecule, in the data set with HO HCU mice [2] (setting [6]), the plasma cysteine result was “increase” and the plasma methionine result is “increase”. In the data set on DHFR, the “improvement of hepatic DHFR level” value is recorded as 5-10%. Further, in the data set with hepatic 5-methyl-THF, the “reduction of hepatic 5-MeTHF” value is 15-25%. The “levels of BHMT protein” value with BHMT is reported as “significantly higher levels”. Besides, in the data set on BHMT (approximately 2% normally), the “BHMT as share of total hepatic protein” value was 8-10%.

Turning to `N[C@@H](Cc1c[nH]c2ccccc12)C(=O)O` [tryptophan], in the data set with HO HCU mice [2] (HO HCU mice), the “further lowering of Hcy due to betaine” value is “also observed”.

`N[C@@H](CO)C(=O)O` [serine]: the “lowering of Hcy in the Cbs null mouse model” value in the data set with Cbs null mouse [1] is on record as “unable to lower Hcy”. Moreover, the “further lowering of Hcy due to betaine” value in the data set with HO HCU mice [2] (HO HCU mice) is given as “reduced and/or completely prevented”. In addition, in the data set on HO HCU mice [2], the “plasma Hcy” value is “significantly lowered” and the plasma cysteine levels entry is listed as “increased”.

With `NCC(=O)O` [glycine], the “lowering of Hcy in the Cbs null mouse model” value in the data set with Cbs null mouse [1] was “unable to lower Hcy”. Also, the “further lowering of Hcy due to betaine” value in the data set on HO HCU mice [2] (HO HCU mice) is given as “reduced and/or completely prevented”. In the data set on HO HCU mice [2], the “plasma Hcy” value is on record as “significantly lowered” and the plasma cysteine levels result is listed as “increased”. In the data set on A394V mice (mouse, in vivo), the “plasma Hcy on glycine challenge” value is reported as “massive increase”.
